# According to US10220100B2, “Halogenated phenols for diagnostics, antioxidant protection and drug delivery” (priority 2011, dated 2019):
# Assays:
# [1] = system: spontaneous mammary tumors; details: 10 mg by gavage; X-ray imaging about two hours after; mice with spontaneous tumors; same mice before treatment showed no foci
# Source text: As described above, oxidative foci or tumors may be identified by X-ray radiographic imaging of animals following administration of an indigogenic compound of the present invention. The radio-opaque indigo-like product formed and deposited with residence time in FROS-containing tumor tissues may then be detected.
# In this example, female C3H/HeN mice were obtained as multiparous retired breeders (i.e., after 3 to 4 litters) that were positive for a mammary tumor virus. […] Mice showing spontaneous tumors were given 10 mg of 5-Iodo-Indoxyl-3′,5′-Diiodo-4′-hydroxy ether substrate (product of Example 4) by gavage. These mice were then subjected to X-ray imaging of the tumors about two hours after being fed the iodo-indigogenic compound. […] When developed, the X-ray film appears dark in areas where more transmission occurs and light in areas where less transmission occurs.
# [2] = system: sites of the wound or injury; details: mice administered the compound, small injuries (cuts, scratches); data not shown
# thyroid hormone activity = details: cited from earlier work
# [3] = Cleavage of the C—C bond during the oxidative dehalogenation reaction; type: physicochemical; details: presence of free radicals and/or oxidative agents
# Source text: It has also been discovered that other types of bonds or linkages may also be cleaved by oxidative or free radical-mediated dehalogenation of the phenol ring. For example, as described herein, it has now been observed that a carbonyl linkage, a nitrogen linkage, a sulfinyl linkage and possibly a C—C bond on the phenol ring may also be cleaved by the oxidative dehalogenation reaction. These bonds are also considered stable, and their cleavage in connection with the dehalogenation reaction is surprising as well. One caveat with the C—C bond or linkage is that depending on the particular starting compound structure and the substituents or groups attached to the halogenated phenol ring via the C—C bond, the C—C bond or linkage may or may not be generally cleaved during or following the dehalogenation reaction (see below). […] However, other compounds do become cleaved. It is important to note that whether a C—C bond of a particular starting compound is “cleavable,” or becomes cleaved, may not be all-or-nothing (i.e., the C—C bond may be considered non-cleavable even though a small or minute amount of cleavage may occur, and vice versa). Thus, the amount or percentage of cleavage may be partial with the alternatively cleaved or non-cleaved product being possibly undetected or minute. […]
# [4] = Spontaneous dehalogenation and ether cleavage in buffered aqueous solution exposed to sunlight; type: physicochemical; details: about 1 mM in carbonate buffer (pH 8.0), sunlight for about one hour; yellow/orange solution, iodide released
# Source text: In contrast to reductive deiodination, spontaneous dehalogenation (e.g., deiodination) of a halogentated phenol ring in the presence of an oxidizing agent(s) and/or free radical(s) with cleavage of a chemical linkage, such as an ether linkage, etc., between the phenol ring and a conjugated compound has not been described. According to the present invention, cleavage of the ether linkage between the aromatic rings of thyroid hormone may form visibly colored quinone and iodine-containing products in buffered aqueous solutions in vitro, and this ether cleavage reaction may be accelerated under basic pH conditions and with exposure to ionizing radiation or light. These conditions favor the increased formation of oxidizing agents and/or free radicals, which are believed to promote the reaction. […] A quinone and an iodotyrosine product are also formed by cleavage of the ether linkage during the reaction. According to embodiments of the present invention, a spontaneous reaction of dehalogenation and cleavage of a chemical bond is proposed for the targeted delivery and release of a drug compound at or to sites of inflammation or disease. This spontaneous reaction is further proposed as a basis for scavenging free radicals and/or oxidative agents (FROS) as well as for the creation of a detectable compound(s) that may be used for diagnostic purposes.
smiles,measurement,setting,value
"Oc1c(I)cc(Oc2c[nH]c3ccc(I)cc23)cc1I [5-Iodo-Indolyl-3′,5′-Diiodo-4′-hydroxyl-p-Phenol Ether]",radio-opaque tumor regions or foci by X-ray,[1],radio-opaque tumor regions or foci
same,X-ray detection at sites of wound or injury,[2],strong detection was observed at the sites of the wound or injury
"N[C@@H](Cc1ccc(Oc2cc(I)c(O)c(I)c2)c(I)c1)C(=O)O [Reverse T3, 3,3′,5′-triiodothyronine]",thyroid hormone activity,thyroid hormone activity,no measurable thyroid hormone activity
"N[C@@H](Cc1ccc(O)c(I)c1)C(=O)O [mono-iodotyrosine, 3-iodo-4-hydroxy-L-phenylalanine]",cleavage of C—C bond with the dehalogenation reaction,[3],generally not to be cleaved
same,cleavage of C—C bond with the dehalogenation reaction,[3]; listed as MIT,generally not be cleaved
N[C@@H](Cc1cc(I)c(Oc2cc(I)c(O)c(I)c2)c(I)c1)C(=O)O [thyroxine],cleavage of the ether linkage,[4],the ether linkage is broken spontaneously
